Measurements as given in US20090018134A1, “Compounds - 945” (AstraZeneca AB, priority 2007, published 2009).

Target: T1, mTOR (Homo sapiens, UniProt P42345)
T1 construct: FLAG; made in house
Assay: In Vitro mTOR Kinase Assay (Echo), Test (a)(ii)
Assay type: biochemical
Conditions: table of enzyme assay Test (a)(ii); read-out: Test (a)(ii) IC50
Procedure, shortened: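 FLAG-tagged truncated mTOR (residues 1362-2549), expressed in HEK293 and purified via the FLAG tag, phosphorylated a biotinylated peptide over 2 hours at room temperature. EDTA stopped the reaction. Phospho-T389 was detected overnight by AlphaScreen using the p70 S6K T389 antibody with Protein A/streptavidin beads; IC50 reported.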

T1 sequence (P42345 1362-2549): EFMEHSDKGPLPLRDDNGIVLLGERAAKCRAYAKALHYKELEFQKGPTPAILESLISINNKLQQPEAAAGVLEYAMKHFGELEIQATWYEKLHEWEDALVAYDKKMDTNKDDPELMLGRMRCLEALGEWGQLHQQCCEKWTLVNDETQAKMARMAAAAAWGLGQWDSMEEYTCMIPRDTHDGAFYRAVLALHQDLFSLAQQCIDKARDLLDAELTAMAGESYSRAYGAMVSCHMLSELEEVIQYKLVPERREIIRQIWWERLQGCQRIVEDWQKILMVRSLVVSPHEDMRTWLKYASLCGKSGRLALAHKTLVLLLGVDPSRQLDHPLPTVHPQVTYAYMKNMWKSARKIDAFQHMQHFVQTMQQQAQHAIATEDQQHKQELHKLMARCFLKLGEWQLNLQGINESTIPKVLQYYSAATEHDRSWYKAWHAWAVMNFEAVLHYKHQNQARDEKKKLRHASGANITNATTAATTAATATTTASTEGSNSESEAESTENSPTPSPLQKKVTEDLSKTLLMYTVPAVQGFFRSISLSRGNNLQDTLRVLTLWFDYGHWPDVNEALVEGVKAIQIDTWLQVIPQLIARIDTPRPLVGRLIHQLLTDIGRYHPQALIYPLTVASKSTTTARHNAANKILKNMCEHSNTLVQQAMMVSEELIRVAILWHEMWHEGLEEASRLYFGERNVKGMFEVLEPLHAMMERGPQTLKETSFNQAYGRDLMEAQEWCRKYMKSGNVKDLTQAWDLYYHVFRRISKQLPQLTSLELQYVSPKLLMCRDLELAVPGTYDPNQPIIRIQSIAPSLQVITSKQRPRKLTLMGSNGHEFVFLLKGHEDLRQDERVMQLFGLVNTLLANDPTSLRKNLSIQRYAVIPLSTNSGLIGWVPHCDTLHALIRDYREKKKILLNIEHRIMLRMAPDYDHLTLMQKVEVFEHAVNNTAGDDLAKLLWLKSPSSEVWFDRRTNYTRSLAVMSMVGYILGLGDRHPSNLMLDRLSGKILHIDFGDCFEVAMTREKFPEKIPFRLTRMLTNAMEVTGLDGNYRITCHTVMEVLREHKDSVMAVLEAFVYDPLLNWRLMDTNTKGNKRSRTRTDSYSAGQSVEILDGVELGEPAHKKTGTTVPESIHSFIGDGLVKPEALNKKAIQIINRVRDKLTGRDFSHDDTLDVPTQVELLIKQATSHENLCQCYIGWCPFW

| SMILES | IC50 [nM] |
| --- | --- |
| C[C@H]1COCCN1c1cc(C2(S(=O)(=O)CCCOC(F)F)CC2)nc(-c2ccc(NC(=O)NC3CC3)cc2)n1 [Example 96e, 3-cyclopropyl-1-[4-[4-[1-[3-(difluoromethoxy)propylsulfonyl]cyclopropyl]-6-[(3S)-3-methylmorpholin-4-yl]pyrimidin-2-yl]phenyl]urea] | 8.62 |
| CNCCS(=O)(=O)C1(c2cc(N3CCOCC3)nc(-c3ccc(NC(=O)NC)cc3)n2)CC1 [Example 97, 3-Methyl-1-[4-[4-[1-(2-methylaminoethylsulfonyl)cyclopropyl]-6-morpholin-4-ylpyrimidin-2-yl]phenyl]urea] | 88.2 |
| Cc1csc(S(=O)(=O)C2(c3cc(N4CCOC[C@@H]4C)nc(-c4ccc(NC(=O)N[C@@H](C)CO)cc4)n3)CCC2)n1 [Example 98b, 3-[(2S)-1-hydroxypropan-2-yl]-1-[4-[4-[(3S)-3-methylmorpholin-4-yl]-6-[1-[(4-methyl-1,3-thiazol-2-yl)sulfonyl]cyclobutyl]pyrimidin-2-yl]phenyl]urea] | 4.13 |
| Cc1csc(S(=O)(=O)C2(c3cc(N4CCOC[C@@H]4C)nc(-c4ccc(NC(=O)NCc5ncc[nH]5)cc4)n3)CCC2)n1 [Example 98c, 3-(1H-imidazol-2-ylmethyl)-1-[4-[4-[(3S)-3-methylmorpholin-4-yl]-6-[1-[(4-methyl-1,3-thiazol-2-yl)sulfonyl]cyclobutyl]pyrimidin-2-yl]phenyl]urea] | 26.7 |
| Cc1csc(S(=O)(=O)C2(c3cc(N4CCOC[C@@H]4C)nc(-c4ccc(NC(=O)NCCCO)cc4)n3)CCC2)n1 [Example 98d, 3-(3-hydroxypropyl)-1-[4-[4-[(3S)-3-methylmorpholin-4-yl]-6-[1-[(4-methyl-1,3-thiazol-2-yl)sulfonyl]cyclobutyl]pyrimidin-2-yl]phenyl]urea] | 4.41 |
| Cc1csc(S(=O)(=O)C2(c3cc(N4CCOC[C@@H]4C)nc(-c4ccc(NC(=O)NCCO)cc4)n3)CCC2)n1 [Example 98e, 3-(2-hydroxyethyl)-1-[4-[4-[(3S)-3-methylmorpholin-4-yl]-6-[1-[(4-methyl-1,3-thiazol-2-yl)sulfonyl]cyclobutyl]pyrimidin-2-yl]phenyl]urea] | 3.35 |
| C[C@H]1COCCN1c1cc(C2(S(=O)(=O)c3nccs3)CCC2)nc(-c2ccc(NC(=O)NC(C)(C)CO)cc2)n1 [Example 98g, 3-(1-hydroxy-2-methylpropan-2-yl)-1-[4-[4-[(3S)-3-methylmorpholin-4-yl]-6-[1-(1,3-thiazol-2-ylsulfonyl)cyclobutyl]pyrimidin-2-yl]phenyl]urea] | 12.7 |

Continued by falling IC50, values first:

| IC50 [nM] | SMILES |
| --- | --- |
| 28.5 | C[C@H]1COCCN1c1cc(C2(S(=O)(=O)c3nccs3)CCC2)nc(-c2ccc(NC(=O)NCc3ncc[nH]3)cc2)n1 [Example 98i, 3-(1H-imidazol-2-ylmethyl)-1-[4-[4-[(3S)-3-methylmorpholin-4-yl]-6-[1-(1,3-thiazol-2-ylsulfonyl)cyclobutyl]pyrimidin-2-yl]phenyl]urea] |
| 11 | Cc1csc(S(=O)(=O)C2(c3cc(N4CCOC[C@@H]4C)nc(-c4ccc(NC(=O)NC(C)(C)CO)cc4)n3)CCC2)n1 [Example 98a, 3-(1-hydroxy-2-methylpropan-2-yl)-1-[4-[4-[(3S)-3-methylmorpholin-4-yl]-6-[1-[(4-methyl-1,3-thiazol-2-yl)sulfonyl]cyclobutyl]pyrimidin-2-yl]phenyl]urea] |
| 3.62 | C[C@@H](CO)NC(=O)Nc1ccc(-c2nc(N3CCOC[C@@H]3C)cc(C3(S(=O)(=O)c4nccs4)CCC3)n2)cc1 [Example 98h, 3-[(2S)-1-hydroxypropan-2-yl]-1-[4-[4-[(3S)-3-methylmorpholin-4-yl]-6-[1-(1,3-thiazol-2-ylsulfonyl)cyclobutyl]pyrimidin-2-yl]phenyl]urea] |
| 2.29 | Cc1csc(S(=O)(=O)C2(c3cc(N4CCOC[C@@H]4C)nc(-c4ccc(NC(=O)N[C@H](C)CO)cc4)n3)CCC2)n1 [Example 98f, 3-[(2R)-1-hydroxypropan-2-yl]-1-[4-[4-[(3S)-3-methylmorpholin-4-yl]-6-[1-[(4-methyl-1,3-thiazol-2-yl)sulfonyl]cyclobutyl]pyrimidin-2-yl]phenyl]urea] |
